Results as given in US20210007356A1, “IMIDE DERIVATIVE AND FUNGICIDE CONTAINING SAID DERIVATIVE AS ACTIVE INGREDIENT” (HOKKO CHEMICAL INDUSTRY CO., LTD., priority 2018, published 2021).
Read-outs that look alike come from different tables or passages of the source.

How the values were obtained:
[1] = tested on: rice sheath blight fungus (Thanatephorus cucumeris); assay: Test Example 10: control effect against rice sheath blight by water surface application (flowable formulation); conditions: flowable 1,000 ppm, 1 mL dripped in paddy water, inoculated after 1 week, 7 days after inoculation
[2] = tested on: rice blast fungus (Pyricularia grisea); type: in vivo; conditions: 5 g of granule on nursery box, paddy rice; inoculated after 3 weeks; 7 days after inoculation
[3] = tested on: barley powdery mildew fungus (Erysiphe graminis); assay: Test Example 2: control effect against barley powdery mildew by foliage application; type: in vivo; conditions: wettable powder diluted to 100 ppm, 10 mL per pot foliage spray on barley; inoculated day after; 7 days after inoculation
[4] = tested on: rice blast fungus (Pyricularia grisea); type: in vivo; conditions: flowable 5,000 ppm, 50 mL irrigation of nursery box, paddy rice; inoculated after 3 weeks; 7 days after inoculation
[5] = tested on: rice sheath blight fungus (Thanatephorus cucumeris); assay: Test Example 8: control effect against rice sheath blight by box treatment (granule); conditions: 5 g of granule on nursery box, paddy rice; inoculated after 3 weeks; 7 days after inoculation
[6] = tested on: rice blast fungus (Pyricularia grisea); type: in vivo; conditions: flowable 1,000 ppm, 1 mL dripped in paddy water, inoculated after 1 week, 7 days after inoculation
[7] = tested on: rice sheath blight fungus (Thanatephorus cucumeris); assay: Test Example 6: control effect against rice sheath blight by box treatment (flowable formulation); conditions: flowable 5,000 ppm, 50 mL irrigation of nursery box, paddy rice; inoculated after 3 weeks; 7 days after inoculation
Method: Control value (%)=[1−(lesion height in sprayed plot/lesion height in unsprayed plot)]×100 (d)
By irrigation, 50 mL of a diluted solution (5,000 ppm) of a flowable prepared according to Formulation Example-3 was applied to a 2.5-leaf-stage paddy rice (variety: Asahi) seedling raised using a nursery box ( 1/10 the area of standard nursery box in size: 12 cm×15 cm×height 4 cm) within a greenhouse. The formulation-treated paddy rice seedling was immediately transplanted at 5 seedlings/pot into a pot ( 1/10000 are in size) filled with paddy soil (flooded). After growing for 3 weeks within a greenhouse, a culture of rice sheath blight fungus (Thanatephorus cucumeris) grown in advance on a rice straw medium was inoculated into the root of the formulation-treated paddy rice, and disease development was promoted in an artificial weather chamber at 26° C. (relative humidity=100%). Seven days after the inoculation, the rice sheath blight lesion height (height from the root) was examined, and the control value (%) was calculated according to formula (d). […] This test was performed with three replications, each consisting of one plot and one pot, per one formulation plot, and its average evaluation value of control effect was determined.

Cc1nc(C(F)F)c(C(=O)N(C(=O)c2snnc2C(F)F)c2ccccc2C(C)CC(C)C)s1 (stereo not shown) [7-176]
evaluation value of control effect (from control value, lesion height) [1]: 5 | evaluation value of control effect (from control value, number of lesions) [2]: 5 | evaluation value of control effect (from control value, lesion area percentage) [3]: 5 | evaluation value of control effect (from control value, number of lesions) [4]: 5 | evaluation value of control effect (from control value, lesion height) [5]: 5 | evaluation value of control effect (from control value, number of lesions) [6]: 5 | evaluation value of control effect (from control value, lesion height) [7]: 5

Cc1nc(C(F)F)c(C(=O)N(C(=O)c2cc(Cl)nc(Cl)c2)c2ccccc2C(C)CC(C)C)s1 (stereo not shown) [7-188]
evaluation value of control effect (from control value, lesion height) [1]: 5 | evaluation value of control effect (from control value, number of lesions) [2]: 5 | evaluation value of control effect (from control value, lesion area percentage) [3]: 4 | evaluation value of control effect (from control value, number of lesions) [4]: 5 | evaluation value of control effect (from control value, lesion height) [5]: 5 | evaluation value of control effect (from control value, number of lesions) [6]: 5 | evaluation value of control effect (from control value, lesion height) [7]: 5

Cc1nc(C(F)F)c(C(=O)N(C(=O)c2sc(C)nc2C(F)F)c2ccccc2CCC(C)C)s1 [7-237]
evaluation value of control effect (from control value, lesion height) [1]: 5 | evaluation value of control effect (from control value, number of lesions) [2]: 5 | evaluation value of control effect (from control value, lesion area percentage) [3]: 4 | evaluation value of control effect (from control value, number of lesions) [4]: 5 | evaluation value of control effect (from control value, lesion height) [5]: 5 | evaluation value of control effect (from control value, number of lesions) [6]: 5 | evaluation value of control effect (from control value, lesion height) [7]: 5

Cc1nc(C(F)F)c(C(=O)N(C(=O)c2scnc2C(F)(F)F)c2ccccc2C(C)CC(C)C)s1 (stereo not shown) [7-250]
evaluation value of control effect (from control value, lesion height) [1]: 5 | evaluation value of control effect (from control value, number of lesions) [2]: 5 | evaluation value of control effect (from control value, lesion area percentage) [3]: 4 | evaluation value of control effect (from control value, number of lesions) [4]: 5 | evaluation value of control effect (from control value, lesion height) [5]: 5 | evaluation value of control effect (from control value, number of lesions) [6]: 5 | evaluation value of control effect (from control value, lesion height) [7]: 5

Cc1nc(C(F)F)c(C(=O)N(C(=O)c2cccnc2C(F)F)c2ccccc2C(C)CC(C)C)s1 (stereo not shown) [7-270]
evaluation value of control effect (from control value, lesion height) [1]: 5 | evaluation value of control effect (from control value, number of lesions) [2]: 5 | evaluation value of control effect (from control value, lesion area percentage) [3]: 4 | evaluation value of control effect (from control value, number of lesions) [4]: 5 | evaluation value of control effect (from control value, lesion height) [5]: 5 | evaluation value of control effect (from control value, number of lesions) [6]: 5 | evaluation value of control effect (from control value, lesion height) [7]: 5

Cc1nc(C(F)F)c(C(=O)N(C(=O)c2cc(Cl)c(Cl)s2)c2ccccc2C(C)CC(C)C)s1 (stereo not shown) [7-274]
evaluation value of control effect (from control value, lesion height) [1]: 5 | evaluation value of control effect (from control value, number of lesions) [2]: 5 | evaluation value of control effect (from control value, lesion area percentage) [3]: 4 | evaluation value of control effect (from control value, number of lesions) [4]: 5 | evaluation value of control effect (from control value, lesion height) [5]: 5 | evaluation value of control effect (from control value, number of lesions) [6]: 5 | evaluation value of control effect (from control value, lesion height) [7]: 5

Cc1nc(C(F)F)c(C(=O)N(C(=O)c2onc(Cl)c2Cl)c2ccccc2C(C)CC(C)C)s1 (stereo not shown) [7-277]
evaluation value of control effect (from control value, lesion height) [1]: 5 | evaluation value of control effect (from control value, number of lesions) [2]: 5 | evaluation value of control effect (from control value, lesion area percentage) [3]: 5 | evaluation value of control effect (from control value, number of lesions) [4]: 5 | evaluation value of control effect (from control value, lesion height) [5]: 5 | evaluation value of control effect (from control value, number of lesions) [6]: 5 | evaluation value of control effect (from control value, lesion height) [7]: 5

Cc1ncc(C(=O)N(C(=O)c2cc(Cl)no2)c2ccccc2C(C)CC(C)C)s1 (stereo not shown) [7-278]
evaluation value of control effect (from control value, lesion height) [1]: 5 | evaluation value of control effect (from control value, number of lesions) [2]: 5 | evaluation value of control effect (from control value, lesion area percentage) [3]: 4 | evaluation value of control effect (from control value, number of lesions) [4]: 5 | evaluation value of control effect (from control value, lesion height) [5]: 5 | evaluation value of control effect (from control value, number of lesions) [6]: 5 | evaluation value of control effect (from control value, lesion height) [7]: 5

Cc1nc(C(F)(F)F)c(C(=O)N(C(=O)c2snnc2C)c2c(Br)cc(OC(F)(F)F)cc2Br)s1 [7-280]
evaluation value of control effect (from control value, lesion height) [1]: 5 | evaluation value of control effect (from control value, number of lesions) [2]: 5 | evaluation value of control effect (from control value, lesion area percentage) [3]: 4 | evaluation value of control effect (from control value, number of lesions) [4]: 5 | evaluation value of control effect (from control value, lesion height) [5]: 5 | evaluation value of control effect (from control value, number of lesions) [6]: 5 | evaluation value of control effect (from control value, lesion height) [7]: 5

Cc1nc(C(F)(F)F)c(C(=O)N(C(=O)c2snnc2C(F)F)c2c(Br)cc(OC(F)(F)F)cc2Br)s1 [7-281]
evaluation value of control effect (from control value, lesion height) [1]: 5 | evaluation value of control effect (from control value, number of lesions) [2]: 5 | evaluation value of control effect (from control value, lesion area percentage) [3]: 4 | evaluation value of control effect (from control value, number of lesions) [4]: 5 | evaluation value of control effect (from control value, lesion height) [5]: 5 | evaluation value of control effect (from control value, number of lesions) [6]: 5 | evaluation value of control effect (from control value, lesion height) [7]: 5

Cc1nc(C(F)(F)F)c(C(=O)N(C(=O)c2scnc2C(F)F)c2c(Br)cc(OC(F)(F)F)cc2Br)s1 [7-283]
evaluation value of control effect (from control value, lesion height) [1]: 5 | evaluation value of control effect (from control value, number of lesions) [2]: 5 | evaluation value of control effect (from control value, lesion area percentage) [3]: 4 | evaluation value of control effect (from control value, number of lesions) [4]: 5 | evaluation value of control effect (from control value, lesion height) [5]: 5 | evaluation value of control effect (from control value, number of lesions) [6]: 5 | evaluation value of control effect (from control value, lesion height) [7]: 5

Cc1nc(C(F)F)c(C(=O)N(C(=O)c2cc(F)nc(F)c2)c2ccccc2C(C)CC(C)C)s1 (stereo not shown) [7-288]
evaluation value of control effect (from control value, lesion height) [1]: 5 | evaluation value of control effect (from control value, number of lesions) [2]: 5 | evaluation value of control effect (from control value, lesion area percentage) [3]: 4 | evaluation value of control effect (from control value, number of lesions) [4]: 5 | evaluation value of control effect (from control value, lesion height) [5]: 5 | evaluation value of control effect (from control value, number of lesions) [6]: 5 | evaluation value of control effect (from control value, lesion height) [7]: 5

Cc1nnsc1C(=O)N(C(=O)c1cccnc1C(F)F)c1ccccc1C(C)CC(C)C (stereo not shown) [13-10]
evaluation value of control effect (from control value, lesion height) [1]: 5 | evaluation value of control effect (from control value, number of lesions) [2]: 5 | evaluation value of control effect (from control value, lesion area percentage) [3]: 5 | evaluation value of control effect (from control value, number of lesions) [4]: 5 | evaluation value of control effect (from control value, lesion height) [5]: 5 | evaluation value of control effect (from control value, number of lesions) [6]: 5 | evaluation value of control effect (from control value, lesion height) [7]: 5

CC(C)CC(C)c1ccccc1N(C(=O)c1cccnc1C(F)F)C(=O)c1cccc2nnsc12 (stereo not shown) [13-16]
evaluation value of control effect (from control value, lesion height) [1]: 5 | evaluation value of control effect (from control value, number of lesions) [2]: 5 | evaluation value of control effect (from control value, lesion area percentage) [3]: 4 | evaluation value of control effect (from control value, number of lesions) [4]: 5 | evaluation value of control effect (from control value, lesion height) [5]: 5 | evaluation value of control effect (from control value, number of lesions) [6]: 5 | evaluation value of control effect (from control value, lesion height) [7]: 5

CC(C)CC(C)c1ccccc1N(C(=O)c1cccnc1C(F)F)C(=O)c1onc(Cl)c1Cl (stereo not shown) [13-49]
evaluation value of control effect (from control value, lesion height) [1]: 5 | evaluation value of control effect (from control value, number of lesions) [2]: 5 | evaluation value of control effect (from control value, lesion area percentage) [3]: 5 | evaluation value of control effect (from control value, number of lesions) [4]: 5 | evaluation value of control effect (from control value, lesion height) [5]: 5 | evaluation value of control effect (from control value, number of lesions) [6]: 5 | evaluation value of control effect (from control value, lesion height) [7]: 5

CC(C)CC(C)c1ccccc1N(C(=O)c1cccnc1Cl)C(=O)c1snc(Cl)c1Cl (stereo not shown) [13-53]
evaluation value of control effect (from control value, lesion height) [1]: 5 | evaluation value of control effect (from control value, number of lesions) [2]: 5 | evaluation value of control effect (from control value, lesion area percentage) [3]: 4 | evaluation value of control effect (from control value, number of lesions) [4]: 5 | evaluation value of control effect (from control value, lesion height) [5]: 5 | evaluation value of control effect (from control value, number of lesions) [6]: 5 | evaluation value of control effect (from control value, lesion height) [7]: 5

CC(C)CC(C)c1sccc1N(C(=O)c1cccnc1C(F)F)C(=O)c1snc(Cl)c1Cl (stereo not shown) [18-2]
evaluation value of control effect (from control value, lesion height) [1]: 5 | evaluation value of control effect (from control value, number of lesions) [2]: 5 | evaluation value of control effect (from control value, lesion area percentage) [3]: 5 | evaluation value of control effect (from control value, number of lesions) [4]: 5 | evaluation value of control effect (from control value, lesion height) [5]: 5 | evaluation value of control effect (from control value, number of lesions) [6]: 5 | evaluation value of control effect (from control value, lesion height) [7]: 5

Cc1nnsc1C(=O)N(C(=O)c1cccnc1C(F)F)c1ccsc1C(C)CC(C)C (stereo not shown) [18-8]
evaluation value of control effect (from control value, lesion height) [1]: 5 | evaluation value of control effect (from control value, number of lesions) [2]: 5 | evaluation value of control effect (from control value, lesion area percentage) [3]: 5 | evaluation value of control effect (from control value, number of lesions) [4]: 5 | evaluation value of control effect (from control value, lesion height) [5]: 5 | evaluation value of control effect (from control value, number of lesions) [6]: 5 | evaluation value of control effect (from control value, lesion height) [7]: 5

CC1OC(C)(C)c2cccc(N(C(=O)c3cn(C)nc3C(F)F)C(=O)c3snc(Cl)c3Cl)c21 (stereo not shown) [25-10]
evaluation value of control effect (from control value, lesion height) [1]: 5 | evaluation value of control effect (from control value, number of lesions) [2]: 5 | evaluation value of control effect (from control value, lesion area percentage) [3]: 4 | evaluation value of control effect (from control value, number of lesions) [4]: 5 | evaluation value of control effect (from control value, lesion height) [5]: 5 | evaluation value of control effect (from control value, number of lesions) [6]: 5 | evaluation value of control effect (from control value, lesion height) [7]: 5
